Measured values taken from BindingDB's records for patent US20240043403 (Astellas Pharma, 2024).

Biological target: Diacylglycerol kinase zeta (Homo sapiens, UniProt Q13574)
Test: Evaluation of DGKdelta Inhibitory Effect
Experimental: To a 384-well plate (Greiner Bio-One Co., Ltd.), 3 μL of a DGK ξ enzyme dissolved in an assay buffer (40 mM Tris-HCl pH 7.5, 10 mM MgCl2, 1 mM dithiothreitol (DTT) and 0.1 mg/mL bovine serum albumin (BSA)) (90 ng/mL) was added, and 3 μL of the test compound diluted with the same assay buffer was added so that an intended final concentration was obtained. The mixture was left standing at room temperature for 15 minutes, 3 μL of a substrate (150 μM 1-oleoyl-2-acetyl-sn-glycerol (Sigma-Aldrich Co. LLC), 480 μM phosphatidylserine (Avanti, Inc.) and 150 μM UltraPure-ATP (attached to ADP-Glo)) was then added, and the mixture was left standing at room temperature for 30 minutes to react. Thereafter, 3 μL of an ADP-Glo Reagent was added, and the mixture was left standing at room temperature for 40 minutes to stop the enzyme reaction. Further, 6 μL of a Kinase-Detection Reagent was added, the mixture was left standing at room temperature for 30 minutes, and the luminescence was then measured using ARVO X3 (PerkinElmer, Inc.). The half maximal inhibitory concentration (IC50) was calculated by Sigmoid-Emax model non-linear regression analysis, where the signal value in solvent treatment was set to 0% inhibition and the signal value without addition of the DGK ξ enzyme was set to 100% inhibition.

Diacylglycerol kinase zeta, sequence (Q13574 whole entry): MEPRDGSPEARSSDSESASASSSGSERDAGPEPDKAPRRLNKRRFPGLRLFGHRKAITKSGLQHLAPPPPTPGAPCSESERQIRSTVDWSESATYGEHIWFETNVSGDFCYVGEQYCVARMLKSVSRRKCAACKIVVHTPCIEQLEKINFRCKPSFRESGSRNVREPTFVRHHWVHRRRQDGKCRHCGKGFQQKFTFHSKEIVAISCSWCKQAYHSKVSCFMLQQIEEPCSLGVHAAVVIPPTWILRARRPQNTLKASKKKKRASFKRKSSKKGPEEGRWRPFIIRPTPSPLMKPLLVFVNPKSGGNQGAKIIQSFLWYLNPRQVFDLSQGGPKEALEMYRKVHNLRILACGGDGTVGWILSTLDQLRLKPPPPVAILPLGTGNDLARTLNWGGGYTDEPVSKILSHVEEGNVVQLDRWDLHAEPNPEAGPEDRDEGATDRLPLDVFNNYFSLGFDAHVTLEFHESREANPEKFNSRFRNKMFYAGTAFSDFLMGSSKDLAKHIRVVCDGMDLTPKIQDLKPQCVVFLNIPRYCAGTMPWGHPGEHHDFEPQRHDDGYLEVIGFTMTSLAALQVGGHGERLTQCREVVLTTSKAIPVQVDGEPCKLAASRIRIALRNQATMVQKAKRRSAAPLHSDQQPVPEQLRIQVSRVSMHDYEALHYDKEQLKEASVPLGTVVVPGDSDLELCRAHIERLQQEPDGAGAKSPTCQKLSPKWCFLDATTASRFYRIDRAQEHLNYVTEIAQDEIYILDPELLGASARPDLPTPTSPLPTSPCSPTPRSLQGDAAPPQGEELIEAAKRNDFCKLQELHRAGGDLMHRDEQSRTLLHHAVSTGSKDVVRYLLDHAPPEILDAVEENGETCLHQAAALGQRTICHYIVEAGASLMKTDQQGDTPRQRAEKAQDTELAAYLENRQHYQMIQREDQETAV

IC50: 16 nM
Compound: NC[C@@H]1CCCN(c2c(NC(=O)c3ccn(CC(F)F)n3)ccc(Oc3ccccc3F)c2C(F)(F)F)C1 [US20240043403, Example 1]
